The target in one assay is TEAD4 (Homo sapiens, UniProt Q15561). Nature of the assay: Thermal shift assay TEAD4. Format: binding. The procedure, abridged: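 Compounds tested at 1 and 10 μM (0.1% DMSO, PBS) against TEAD4 protein at 0.1 mg/ml final. Melting followed by thermal shift dye fluorescence during a qPCR instrument ramp.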
For another assay, the target named is TEAD2 (Homo sapiens, UniProt Q15562). Nature of the assay: Thermal shift assay TEAD2. The class given is binding. The procedure, abridged: (§1)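 Protein melt reactions contained TEAD1 (0.2 mg/ml final) or TEAD2 (0.08 mg/ml final) plus compound at 1 or 10 μM in 0.1% DMSO. Thermal unfolding was followed by dye fluorescence on a qPCR instrument.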
Sequence of TEAD2 (Q15562 whole entry, species assumed): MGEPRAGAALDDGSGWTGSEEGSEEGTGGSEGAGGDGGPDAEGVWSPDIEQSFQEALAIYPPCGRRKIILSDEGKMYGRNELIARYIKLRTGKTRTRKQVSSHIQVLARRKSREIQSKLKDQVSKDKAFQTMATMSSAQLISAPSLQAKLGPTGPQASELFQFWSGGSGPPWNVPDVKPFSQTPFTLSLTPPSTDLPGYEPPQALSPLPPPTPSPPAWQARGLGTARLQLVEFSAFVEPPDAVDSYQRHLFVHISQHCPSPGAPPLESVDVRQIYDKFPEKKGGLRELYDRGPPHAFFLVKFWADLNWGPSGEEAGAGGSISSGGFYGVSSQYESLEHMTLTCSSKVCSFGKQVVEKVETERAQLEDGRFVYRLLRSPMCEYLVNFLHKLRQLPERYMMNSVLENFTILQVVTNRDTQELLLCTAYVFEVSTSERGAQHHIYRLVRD
The next assay addresses TEAD3 (Homo sapiens, UniProt Q99594). Nature of the assay: Thermal shift assay TEAD3. The class given is binding. The procedure, abridged: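 Compounds at 1 or 10 μM (0.1% DMSO, PBS dilution) mixed with 0.1 mg/ml final TEAD3 and thermal shift dye, then run through a qPCR melt to follow protein unfolding.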
A further assay has as its system NCI-H226 cells. Nature of the assay: Cell growth assay (CellTiter-Glo). The class given is cell-based, human. The following applies: Homo sapiens, NCI-H226, 168 h, 7 days treatment, CellTiter-Glo luminescence, read-out: H226 CTG IC50. As for the experimental part: Example A: Cell Growth Assay
CellTiter-Glo reagent (CTG reagent, Promega, G7573).
[…] Also seeding an extra plate as Day 0 control measurement. The microplates were incubated at 37° C., 5% CO2 overnight.
Compounds were 3-fold serial diluted in DMSO and final top-concentration was […], 10 points. 0.3% DMSO as vehicle control. In addition, […] of CTG reagent was added into the extra plate and incubated at room temperature for 30 minutes and detected luminescence signals as Day 0 control by using EnVision (PerkinElmer, 2104 Mutilabel Reader).
Incubated other compounds treated plates at 37° C. for another 7 days and […] of CTG reagent was added into the plates and incubated at room temperature for 30 minutes and detected luminescence signals.
Day 0 luminescence signals were used as negative control or baseline. • Signalday0=average luminescence signals of Day 0 control cells. • Signalblank control=average luminescence signals of blank control. • SignalDMSO vehicle control=average luminescence signals of Day 7 DMSO vehicle control cells. • Signalcpds treatment=luminescence signals of Day 7 compounds treatment cells. Inhibition %=1−(Signalcpds treatment−Signalblank control)/(SignalDMSO vehicle control−Signalblank control)*100.
(Inhibitory concentration 50% (IC50) and maximum inhibition % were calculated using dose response curves.

A further assay deals with TEAD1 (Homo sapiens, UniProt P28347). Nature of the assay: Thermal shift assay TEAD1. The class given is binding. A digest of the protocol: as §1
Sequence of TEAD1 (P28347 whole entry, species assumed): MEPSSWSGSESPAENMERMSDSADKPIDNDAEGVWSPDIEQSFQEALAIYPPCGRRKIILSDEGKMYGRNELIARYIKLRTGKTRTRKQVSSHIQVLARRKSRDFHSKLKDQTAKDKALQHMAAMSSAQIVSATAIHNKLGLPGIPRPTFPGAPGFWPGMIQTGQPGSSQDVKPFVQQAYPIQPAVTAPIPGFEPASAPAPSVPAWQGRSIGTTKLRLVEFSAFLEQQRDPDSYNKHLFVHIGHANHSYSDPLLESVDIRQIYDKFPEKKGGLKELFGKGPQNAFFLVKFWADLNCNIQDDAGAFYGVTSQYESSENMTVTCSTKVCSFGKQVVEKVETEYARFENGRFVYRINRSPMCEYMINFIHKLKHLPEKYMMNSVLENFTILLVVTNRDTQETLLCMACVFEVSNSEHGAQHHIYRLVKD

Sequence of TEAD4 (Q15561 whole entry, species assumed): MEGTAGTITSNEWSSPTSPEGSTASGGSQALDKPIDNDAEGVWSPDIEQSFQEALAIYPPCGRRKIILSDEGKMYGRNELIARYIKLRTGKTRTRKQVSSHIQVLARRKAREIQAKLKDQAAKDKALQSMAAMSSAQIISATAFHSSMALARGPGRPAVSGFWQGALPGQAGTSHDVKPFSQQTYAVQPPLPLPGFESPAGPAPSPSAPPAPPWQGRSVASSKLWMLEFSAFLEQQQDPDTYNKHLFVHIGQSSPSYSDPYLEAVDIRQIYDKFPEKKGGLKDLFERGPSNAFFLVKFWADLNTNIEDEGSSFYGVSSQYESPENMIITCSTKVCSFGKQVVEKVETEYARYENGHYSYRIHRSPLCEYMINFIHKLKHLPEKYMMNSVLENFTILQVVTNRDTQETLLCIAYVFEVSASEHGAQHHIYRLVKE
Sequence of TEAD3 (Q99594 whole entry, species assumed): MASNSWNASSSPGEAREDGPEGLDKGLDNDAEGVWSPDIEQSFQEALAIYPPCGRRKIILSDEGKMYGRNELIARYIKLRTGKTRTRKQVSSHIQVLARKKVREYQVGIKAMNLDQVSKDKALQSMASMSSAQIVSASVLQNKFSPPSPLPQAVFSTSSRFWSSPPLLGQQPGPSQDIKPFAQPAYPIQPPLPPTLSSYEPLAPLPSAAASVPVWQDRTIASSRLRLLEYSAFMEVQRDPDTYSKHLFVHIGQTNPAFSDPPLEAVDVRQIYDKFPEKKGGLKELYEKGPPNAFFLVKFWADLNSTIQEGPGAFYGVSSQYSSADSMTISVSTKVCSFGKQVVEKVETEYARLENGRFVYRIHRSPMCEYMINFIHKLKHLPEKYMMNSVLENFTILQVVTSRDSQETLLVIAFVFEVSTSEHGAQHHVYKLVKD

Regarding `CNC(=O)[C@@H]1C[C@H]1c1cc(Oc2ccc(C(F)(F)F)cc2)cc2cn(C)nc12` (single isomer, unassigned) [Example 34a], the “TEAD4 ΔTm” value on TEAD4 is 5.2 °C. The “TEAD2 ΔTm” value at TEAD2 was 10.2 °C. Also, the “TEAD3 ΔTm” value at TEAD3 turned out to be 1.4 °C. Also, the IC50 (commonly the concentration that gives 50% inhibition) in the assay on NCI-H226 cells fell in the range of 0.1 to 0.5 µM. For the same compound, on TEAD1, the “TEAD1 ΔTm” value worked out at 5.2 °C.

For `[2H]C([2H])([2H])NC(=O)[C@@H]1C[C@H]1c1cc(Oc2ccc(C(F)(F)F)cc2)cc2cn(C)nc12` (single isomer, unassigned) [Example 52], the “TEAD4 ΔTm” value at TEAD4 stood at 4.3 °C. For the same compound, the “TEAD2 ΔTm” value on TEAD2 amounted to 9.8 °C. The “TEAD3 ΔTm” value on TEAD3 was −0.5 °C. Besides, the IC50 in the assay with NCI-H226 cells fell in the range of 1 to 30 µM. For the same compound, the “TEAD1 ΔTm” value at TEAD1 is 4.7 °C.

For `[2H]C([2H])([2H])NC(=O)[C@H]1CC1c1cc(Oc2ccc(C(F)(F)F)cc2)cc2cn(C)nc12` (single isomer, unassigned) [Example 53], the “TEAD4 ΔTm” value at TEAD4 came to 10.5 °C. The “TEAD2 ΔTm” value at TEAD2 amounted to 13.7 °C. Further, the “TEAD3 ΔTm” value at TEAD3 was determined as 9.8 °C. Also, the IC50 with NCI-H226 cells is below 0.1 µM. The “TEAD1 ΔTm” value on TEAD1 was 9.2 °C.

Turning to `C[C@@H](CO)NC(=O)[C@@H]1CC1c1cc(Oc2ccc(C(F)(F)F)cc2)cc2cn(C)nc12` (single isomer, unassigned) [Example 54], the “TEAD4 ΔTm” value on TEAD4 was determined as 9.5 °C. Besides, the “TEAD2 ΔTm” value at TEAD2 is 9.8 °C. For the same compound, the “TEAD3 ΔTm” value on TEAD3 turned out to be 1.2 °C. Further, the IC50 in the assay on NCI-H226 cells was below 0.1 µM. The “TEAD1 ΔTm” value at TEAD1 was determined as 8.5 °C.

Turning to `C[C@H](CO)NC(=O)[C@@H]1CC1c1cc(Oc2ccc(C(F)(F)F)cc2)cc2cn(C)nc12` (single isomer, unassigned) [Example 55], the “TEAD4 ΔTm” value at TEAD4 was 11.5 °C. Also, the “TEAD2 ΔTm” value on TEAD2 came to 11.1 °C. Further, the “TEAD3 ΔTm” value on TEAD3 is 10.2 °C. The IC50 in the assay with NCI-H226 cells was below 0.1 µM. Further, the “TEAD1 ΔTm” value on TEAD1 stood at 11.3 °C.

As for `CC(C)NC(=O)[C@@H]1C[C@H]1c1cc(Oc2ccc(C(F)(F)F)cc2)cc2cn(C)nc12` (single isomer, unassigned) [Example 56a], at TEAD4, the “TEAD4 ΔTm” value is 2.6 °C. Moreover, the “TEAD2 ΔTm” value at TEAD2 was found to be 6.5 °C. Further, the “TEAD3 ΔTm” value at TEAD3 is −0.3 °C. For the same compound, the IC50 with NCI-H226 cells lay in the range of 0.5 to 1 µM. In addition, the “TEAD1 ΔTm” value on TEAD1 came to 5.4 °C.

With `CC(C)NC(=O)[C@H]1C[C@@H]1c1cc(Oc2ccc(C(F)(F)F)cc2)cc2cn(C)nc12` (single isomer, unassigned) [Example 56b], at TEAD4, the “TEAD4 ΔTm” value stood at 12.5 °C. Moreover, on TEAD2, the “TEAD2 ΔTm” value worked out at 10.0 °C. The “TEAD3 ΔTm” value at TEAD3 came out at 8.1 °C. Further, in the assay on NCI-H226 cells, the IC50 was below 0.1 µM. Besides, the “TEAD1 ΔTm” value on TEAD1 amounted to 9.1 °C.

As to `Cn1cc2cc(Oc3ccc(C(F)(F)F)cc3)cc([C@H]3C[C@@H]3C(=O)N[C@@H](CO)c3ccccn3)c2n1` (single isomer, unassigned) [Example 59a], the “TEAD4 ΔTm” value on TEAD4 was 7.9 °C. Moreover, at TEAD2, the “TEAD2 ΔTm” value was 4.7 °C. The “TEAD3 ΔTm” value at TEAD3 was 0.4 °C. For the same compound, in the assay with NCI-H226 cells, the IC50 was 0.1 to 0.5 µM. The “TEAD1 ΔTm” value at TEAD1 is 6.9 °C.

Take `Cn1cc2cc(Oc3ccc(C(F)(F)F)cc3)cc([C@@H]3C[C@H]3C(=O)N[C@@H](CO)c3ccccn3)c2n1` (single isomer, unassigned) [Example 59b]: the “TEAD4 ΔTm” value on TEAD4 turned out to be 15.6 °C. Moreover, the “TEAD2 ΔTm” value on TEAD2 came out at 11.3 °C. Further, the “TEAD3 ΔTm” value on TEAD3 was determined as 13.1 °C. Further, the IC50 with NCI-H226 cells was in the range of 0.1 to 0.5 µM. In addition, on TEAD1, the “TEAD1 ΔTm” value amounted to 9.4 °C.

Regarding `Cn1cc2cc(Oc3ccc(C(F)(F)F)cc3)cc([C@@H]3C[C@H]3C(=O)N3CC(C)(O)C3)c2n1` (single isomer, unassigned) [Example 60], the “TEAD4 ΔTm” value at TEAD4 is 12.3 °C. The “TEAD2 ΔTm” value on TEAD2 was determined as 12.7 °C. The “TEAD3 ΔTm” value on TEAD3 was determined as 11.2 °C. For the same compound, in the assay on NCI-H226 cells, the half-maximal inhibitory concentration (IC50) was below 0.1 µM. Moreover, the “TEAD1 ΔTm” value on TEAD1 stood at 9.5 °C.

(Values after patent publication US12103915B2, “TEAD inhibitors and methods of uses thereof” (Insilico Medicine IP Limited, priority 2022, dated 2024).)
